Test results published in PubChem BioAssay AID1259407 (Chemical Carcinogenesis Research Information System (CCRIS), 2018).
Calls of active or inactive are those of the source. The rule behind the calls is not given here.

Test system: CCRIS mutagenicity, Ames/micronucleus/aberration tests
Assay: CCRIS mutagenicity studies
[1] = Test System: AMES SALMONELLA TYPHIMURIUM, Strain/Indicator: TA98, Metabolic Activation: NONE, Method: STANDARD PLATE
[2] = Test System: AMES SALMONELLA TYPHIMURIUM, Strain/Indicator: TA98, Metabolic Activation: RAT, LIVER, S-9, AROCLOR 1254, Method: STANDARD PLATE
[3] = Test System: AMES SALMONELLA TYPHIMURIUM, Strain/Indicator: TA100, Metabolic Activation: NONE, Method: STANDARD PLATE
[4] = Test System: AMES SALMONELLA TYPHIMURIUM, Strain/Indicator: TA100, Metabolic Activation: RAT, LIVER, S-9, AROCLOR 1254, Method: STANDARD PLATE

Cn1cnc2c1c(=O)[nH]c(=O)n2C
mutagenic call (Test System: AMES SALMONELLA TYPHIMURIUM, Strain/Indicator: TA97A, Metabolic Activation: NONE, Method: STANDARD PLATE): inactive; negative | mutagenic call (Test System: AMES SALMONELLA TYPHIMURIUM, Strain/Indicator: TA97A, Metabolic Activation: RAT LIVER S-9, Method: STANDARD PLATE): inactive; negative | mutagenic call [1]: inactive; negative | mutagenic call [2]: inactive; negative | mutagenic call [3]: inactive; negative | mutagenic call (Test System: AMES SALMONELLA TYPHIMURIUM, Strain/Indicator: TA100, Metabolic Activation: RAT LIVER S-9, Method: STANDARD PLATE): inactive; negative | mutagenic call [4]: inactive; negative | mutagenic call (Test System: AMES SALMONELLA TYPHIMURIUM, Strain/Indicator: TA102, Metabolic Activation: NONE, Method: STANDARD PLATE): inactive; negative | mutagenic call (Test System: AMES SALMONELLA TYPHIMURIUM, Strain/Indicator: TA102, Metabolic Activation: RAT LIVER S-9, Method: STANDARD PLATE): inactive; negative | mutagenic call (Test System: AMES SALMONELLA TYPHIMURIUM, Strain/Indicator: TA104, Metabolic Activation: NONE, Method: STANDARD PLATE): inactive; negative | mutagenic call (Test System: AMES SALMONELLA TYPHIMURIUM, Strain/Indicator: TA104, Metabolic Activation: RAT LIVER S-9, Method: STANDARD PLATE): inactive; negative | mutagenic call (Test System: AMES SALMONELLA TYPHIMURIUM, Strain/Indicator: TA1535, Metabolic Activation: NONE, Method: STANDARD PLATE): inactive; negative | mutagenic call (Test System: AMES SALMONELLA TYPHIMURIUM, Strain/Indicator: TA1535, Metabolic Activation: RAT, LIVER, S-9, AROCLOR 1254, Method: STANDARD PLATE): inactive; negative | mutagenic call (Test System: AMES SALMONELLA TYPHIMURIUM, Strain/Indicator: TA1537, Metabolic Activation: NONE, Method: STANDARD PLATE): inactive; negative | mutagenic call (Test System: AMES SALMONELLA TYPHIMURIUM, Strain/Indicator: TA1537, Metabolic Activation: RAT, LIVER, S-9, AROCLOR 1254, Method: STANDARD PLATE): inactive; negative | mutagenic call (Test System: AMES SALMONELLA TYPHIMURIUM, Strain/Indicator: TA1538, Metabolic Activation: NONE, Method: STANDARD PLATE): inactive; negative | mutagenic call (Test System: AMES SALMONELLA TYPHIMURIUM, Strain/Indicator: TA1538, Metabolic Activation: RAT, LIVER, S-9, AROCLOR 1254, Method: STANDARD PLATE): inactive; negative | mutagenic call (Test System: MOUSE LYMPHOMA, Strain/Indicator: L5178Y (TK+/TK-), Metabolic Activation: NONE, Method: SUSPENSION/PLATE): active; positive | mutagenic call (Test System: MOUSE LYMPHOMA, Strain/Indicator: L5178Y (TK+/TK-), Metabolic Activation: RAT, LIVER, S-9, AROCLOR 1254, Method: STANDARD PLATE): active; positive

CCCCCCCCOC(=O)c1ccccc1C(=O)OCCCCCCCC
mutagenic call (Test System: AMES SALMONELLA TYPHIMURIUM, Strain/Indicator: TA98, Metabolic Activation: HAMSTER, LIVER, S-9, AROCLOR 1254 (10%), Method: PREINCUBATION): inactive; negative | mutagenic call (Test System: AMES SALMONELLA TYPHIMURIUM, Strain/Indicator: TA98, Metabolic Activation: NONE, Method: PREINCUBATION): inactive; negative | mutagenic call (Test System: AMES SALMONELLA TYPHIMURIUM, Strain/Indicator: TA98, Metabolic Activation: RAT, LIVER, S-9, AROCLOR 1254 (10%), Method: PREINCUBATION): inactive; negative | mutagenic call (Test System: AMES SALMONELLA TYPHIMURIUM, Strain/Indicator: TA100, Metabolic Activation: HAMSTER, LIVER, S-9, AROCLOR 1254 (10%), Method: PREINCUBATION): inactive; negative | mutagenic call (Test System: AMES SALMONELLA TYPHIMURIUM, Strain/Indicator: TA100, Metabolic Activation: NONE, Method: PREINCUBATION): inactive; negative | mutagenic call (Test System: AMES SALMONELLA TYPHIMURIUM, Strain/Indicator: TA100, Metabolic Activation: RAT, LIVER, S-9, AROCLOR 1254 (10%), Method: PREINCUBATION): inactive; negative | mutagenic call (Test System: AMES SALMONELLA TYPHIMURIUM, Strain/Indicator: TA1535, Metabolic Activation: HAMSTER, LIVER, S-9, AROCLOR 1254 (10%), Method: PREINCUBATION): inactive; negative | mutagenic call (Test System: AMES SALMONELLA TYPHIMURIUM, Strain/Indicator: TA1535, Metabolic Activation: NONE, Method: PREINCUBATION): inactive; negative | mutagenic call (Test System: AMES SALMONELLA TYPHIMURIUM, Strain/Indicator: TA1535, Metabolic Activation: RAT, LIVER, S-9, AROCLOR 1254 (10%), Method: PREINCUBATION): inactive; negative | mutagenic call (Test System: AMES SALMONELLA TYPHIMURIUM, Strain/Indicator: TA1537, Metabolic Activation: HAMSTER, LIVER, S-9, AROCLOR 1254 (10%), Method: PREINCUBATION): inactive; negative | mutagenic call (Test System: AMES SALMONELLA TYPHIMURIUM, Strain/Indicator: TA1537, Metabolic Activation: NONE, Method: PREINCUBATION): inactive; negative | mutagenic call (Test System: AMES SALMONELLA TYPHIMURIUM, Strain/Indicator: TA1537, Metabolic Activation: RAT, LIVER, S-9, AROCLOR 1254 (10%), Method: PREINCUBATION): inactive; negative

Cc1ccccc1-c1ccc(N)cc1
mutagenic call [1]: inactive; negative | mutagenic call [2]: active; positive | mutagenic call [3]: inactive; negative | mutagenic call [4]: active; positive

O=C(/C=C/c1ccc(-c2ccccc2)cc1)c1ccccc1
mutagenic call [1]: inactive; negative | mutagenic call [2]: inactive; negative | mutagenic call [3]: inactive; negative | mutagenic call [4]: inactive; negative

O=C(NCCCl)Nc1ncc([N+](=O)[O-])s1
mutagenic call [1]: active; positive | mutagenic call [3]: active; positive
